row,melting point,SMILES
1,198 °C,CC(=O)Nc1c(C(=O)C2CCCCC2)[nH]c2cc(Cl)ccc12
2,86 to 100 °C,COC1(c2cc(F)cc(OCC#Cc3ccc(Cc4nc(-c5ccccc5)c(-c5ccc(S(N)(=O)=O)cc5)o4)cc3)c2)CCOCC1
3,138 to 142 °C,CC(C#Cc1ccc(C#N)cc1)N1C(=O)c2ccccc2C1=O (configuration not stated)
4,58 to 59 °C,CCCCCCCCCCCCCCCCCCOCCSCCO
5,54.5 to 55.5 °C,COC(=O)c1cccc2c(C)c(C)oc12
6,140 to 141 °C,CS(=O)(=O)c1ccc(-c2ccc(F)n2-c2ccc(F)cc2)cc1
7,158 to 160 °C,Cc1cccc(-c2nc(N)sc2-c2ccnc(-c3ccc(C(=O)N4CCOCC4)cc3)c2)n1
8,237 to 238 °C,COc1ccc(CN2C(=O)[C@H]3CCC[C@H]3N(C(=O)CN3C(=O)c4ccccc4C3=O)c3ccccc32)cc1 (relative stereo)
9,104 to 105 °C,Cc1ccc(-c2nc(CI)c(C)o2)cc1
10,292 to 293 °C,COc1nc2cc(Cl)c(Cl)c(NS(=O)(=O)c3ccccc3)c2nc1OC
11,42 to 43 °C,CSc1cccc(-c2ccccc2[N+](=O)[O-])c1
12,100 °C,CCOC(=O)C1=C(COCC#CC(=O)O)NC(C)=C(C(=O)OC)C1c1cccc(Cl)c1Cl (configuration not stated)
13,177 to 178 °C,COc1cc(C)c(C)cc1NC(=O)N1CCN(c2cccc(O)c2)CC1
14,120 to 121 °C,COC(=O)c1ccc(Cl)c(C(=O)NOCc2ccc(Cl)cc2)c1Cl
15,108 °C,CCC(=O)Oc1cc(OC)cc(OC)c1C(=O)C=Cc1ccc(SC)cc1
16,85 to 89 °C,CCCCn1c(CCC)ccc1Cc1cccc(NC(N)=O)c1
17,184 to 185 °C,Cc1ccc(N(C)S(=O)(=O)c2cccs2)c2[nH]c(-c3ncc(CO)s3)cc12
18,126 to 127 °C,CCCc1nn(-c2ccc(C(F)(F)F)cn2)cc1CCCOc1ccc(CCC(=O)O)cc1OC
19,122 to 123 °C,CCOc1ccc(OCc2ccc(OCc3nc(-c4ccccc4)oc3C)cc2)cc1CC(=O)O
20,70.3 °C,O=C(O)CCCCO/N=C(/c1cccnc1)c1cccc(C(F)(F)F)c1
21,178 to 182 °C,Cc1ccc(C(=O)OCCOC(=O)NC2(C(=O)O)CC2)cc1
22,170 to 172 °C,Cn1c(=O)c(N)c(N)n(-c2ccc(Cl)cc2Cl)c1=O
23,172 to 174 °C,COc1ccc(OC)c(Cc2cc(C)cc(OC)c2C(=O)O)c1

row,melting point,SMILES
1,235 to 236 °C,N#Cc1cc(C(=O)O)c2c(c1)C(C(=O)O)CCN2 (configuration not stated)
2,202 to 203 °C,N#Cc1c(-c2ccc(C(F)(F)F)cc2)n(O)c2ccccc12
3,59 to 61 °C,CCCCCCCCCCCCCCOCC(C=CC(=O)N(C)C)(C=CC(=O)N(C)C)COCCCCCCCCCCCCCC
4,113 to 114 °C,CC(=O)OC1CC2=CC=C3C4CCC(C(C)CCCC(C)C)C4(C)CCC3C2(C)C(OC(C)=O)C1 (configuration not stated)
5,121 to 123 °C,COc1ccc(NC2(C#N)CCCCC2)cn1
6,175 to 176 °C,Cc1ccc(F)cc1C1CC(=O)CC(=O)C1
7,67 to 68 °C,COc1cc(CCCl)cc2c1OCO2
8,150 to 151 °C,O=c1[nH]c(=O)n(Cc2ccc(OCc3noc(-c4ccccc4)n3)cc2)o1
9,70 to 72 °C,CCCCCCCCS(=O)c1ccc(CC(COC(C)=O)(COC(C)=O)NC(C)=O)cc1 (configuration not stated)
10,288 to 290 °C,O=C(O)c1ccc(C(=O)O)c2c(Br)cccc12
11,109 to 110 °C,CCN(CCCOC)c1nc(C)nc2c1nnn2-c1ccc(C(C)C)cc1Br
12,> 320 °C,CC1CCN(CCC(=O)Nc2ccc3c(=O)c4ccc(NC(=O)CCN5CCC(C)CC5)cc4[nH]c3c2)CC1
13,58 to 59 °C,CC(CO)c1ccc(-c2ccc(F)cc2F)c(F)c1 (configuration not stated)
14,75.2 °C,CCCOc1ccccc1CN1N=C(CCC)C(=CNc2ccccc2CC)C1=O
15,137 to 138 °C,CCC(O)(c1cccc(C(F)(F)F)c1)c1ccc(O)cc1O (configuration not stated)
16,103 to 120 °C,O=C(c1ccc2ccccc2c1)C(O)O
17,155 °C,CCOC(=O)CSc1nc(Nc2ccc(OC)c(Cl)c2)cc(-c2ccccc2)n1
18,137 to 140 °C,CSC(=NC(C)=O)Nc1c(Cl)cccc1Cl
19,159 to 161 °C,Cn1c(CO)c(-c2ccccc2)c2ccccc2c1=O
20,201 to 203 °C,COC(=O)c1c2cc(I)ccc2nc2ccc(I)cc12
21,93 to 94 °C,CC(=O)N(C)c1nc(C(C)(C)C)nn1-c1c(Cl)cc(Cl)cc1Cl
22,133 to 134 °C,Cc1nc2c(OCc3c(Cl)ccc(NC(C)C)c3Cl)cccn2c1Br
23,130 to 131 °C,O=C(Cc1ccccc1)N[C@H]1CN(OCc2ccccc2)C1=O

row,melting point,SMILES
1,156 °C,CON=C(C1=C(O)C(=O)N(c2ncc(S(=O)(=O)c3ccc([N+](=O)[O-])cc3)s2)C1c1ccc(C(C)C)cc1)c1ccc(C)cc1 (configuration not stated)
2,60 to 61 °C,CCOc1ccc(OCC)c(C=O)c1
3,278 to 280 °C,COc1cc(C=CC(=O)Nc2cnc3cc(C)c(C)cc3c2-c2ccccc2Cl)cc(OC)c1O
4,274 to 276 °C,COc1ccc2cc3c(c(-c4ccc5c(c4)OCO5)c2c1OC)C(=O)NC3=O
5,84 to 85 °C,Cc1oc(-c2ccc(C(F)(F)F)cc2)nc1CCl
6,136 °C,O=C1c2cccc3cccc(c23)N1CCCl
7,184 to 186 °C,O=C1OCCC12Sc1cc(NO)ccc1C2=O (configuration not stated)
8,134 to 135 °C,Cc1nc(COc2ccc(Cl)cc2)sc1C(=O)N[C@H](C)[C@](O)(Cn1cncn1)c1ccc(F)cc1F
9,160 to 161 °C,N#CC(CC(=O)c1ccc(Cl)cc1)C(N)=O (configuration not stated)
10,180 to 182 °C,Cc1onc(-c2ccc(F)cc2)c1-c1ccc(S(N)(=O)=O)c(F)c1
11,141 to 142 °C,CCNC(=NS(=O)(=O)c1ccc(N)cc1)N1CC2(C=N1)CCCC2
12,171 to 173 °C,COC(=O)c1nc(-c2ccc(Cl)c(OC)c2F)nc(N)c1/C=C/Br
13,155 to 162 °C,CC(=O)Nc1cccc2c1C(=O)CCCC2
14,172 to 173 °C,Cc1ccc(NC(=O)c2ccccc2[N+](=O)[O-])cc1C(F)(F)F
15,> 250 °C,CSc1nc(N2CCc3ccccc3CC2)c(C#N)c(=O)[nH]1
16,195 to 200 °C,O=C(O)C(=O)c1oc2cccc(OCc3ccc(F)cc3)c2c1O
17,241 to 242 °C,O=C(Nc1cccnc1)N1CCc2cc(-c3ccccc3)ccc21
18,> 260 °C,COc1cc2c(cc1OC)CN(CCCOc1ccc(NC(=O)c3cccc(C(=O)c4ccccc4)c3)cc1)CC2
19,85 to 86 °C,COc1cc(N(C)C)c(Cl)cc1C(=O)NC1CCN(Cc2ccccc2)C1 (configuration not stated)
20,101 to 102 °C,COC(=O)CCSc1ncccc1C#N
21,> 300 °C,Cc1[nH]n(Cc2ccc(C(=O)O)cc2)c2nc(-c3ccncc3)nc(=O)c1-2
22,> 250 °C,O=c1[nH]c2cc(F)c(Cl)c(F)c2[nH]c1=O

row,SMILES,melting point
1,O=C(O)C(=O)c1cn(Cc2ccc(F)cc2)c2ccc(-c3ccc(OC(F)(F)F)cc3)cc12,158 to 159 °C
2,O=C(Nc1nc(C(Cl)(Cl)Cl)ns1)C(Cl)(Cl)Cl,158 °C
3,C1=C(c2c[nH]c3c(C4CC4)cccc23)CCNC1,186 to 189 °C
4,N#Cc1cccc2c1COc1ccc(OCc3ccc4cc(F)c(Cl)cc4n3)cc1C2SCCC(=O)O (configuration not stated),125 to 128 °C
